What all share (format): biochemical
One assay deals with LRRK2 (Homo sapiens, UniProt Q5S007). The experiment in a line: LRRK2 WT assay (Assay B, radiometric 33P-ATP filter binding). Conditions: Assay B (values marked *). Here is the method: LRRK2(human) is incubated with 50 mM HEPES pH 8.0, 0.2 mM EDTA, 0.01% Brij-35, 1% (w/v) BSA, 5 mM DTT, 250 Mm […], 10 mM Magnesium acetate and [[…]]-ATP (specific activity and concentration as required).
The reaction is initiated by the addition of the Mg/ATP mix.

A further assay addresses T1, full-length LRRK2 G2019S (Homo sapiens, UniProt Q5S007, G2019S).
T1 construct: DYKDDDDK (FLAG)
The experiment in a line: LRRK2-G2019S kinase activity assay (Lanthascreen TR-FRET). Conditions: 1.1 mM ATP.

Assay [1] has as its target T2, full-length LRRK2 wild type (Homo sapiens, UniProt Q5S007).
T2 construct: DYDDDDK tagged full-length LRRK2 wild type is used
In words: LRRK2 WT assay (Assay A, Lanthascreen TR-FRET, 500 uM ATP). Conditions: Assay A (values without *). (In general: TR-FRET usually uses a lanthanide donor and a delayed reading to cut background.)

Each structure is given as a SMILES string.

For 25 compounds, IC50 results are on record in patent US20240383901A1, “SUBSTITUTED PYRROLO[2,3-D]PYRIMIDINES, THEIR PREPARATION AND THEIR THERAPEUTIC APPLICATION” (SANOFI, priority 2021, published 2024).

T1 sequence (Q5S007 whole entry G2019S): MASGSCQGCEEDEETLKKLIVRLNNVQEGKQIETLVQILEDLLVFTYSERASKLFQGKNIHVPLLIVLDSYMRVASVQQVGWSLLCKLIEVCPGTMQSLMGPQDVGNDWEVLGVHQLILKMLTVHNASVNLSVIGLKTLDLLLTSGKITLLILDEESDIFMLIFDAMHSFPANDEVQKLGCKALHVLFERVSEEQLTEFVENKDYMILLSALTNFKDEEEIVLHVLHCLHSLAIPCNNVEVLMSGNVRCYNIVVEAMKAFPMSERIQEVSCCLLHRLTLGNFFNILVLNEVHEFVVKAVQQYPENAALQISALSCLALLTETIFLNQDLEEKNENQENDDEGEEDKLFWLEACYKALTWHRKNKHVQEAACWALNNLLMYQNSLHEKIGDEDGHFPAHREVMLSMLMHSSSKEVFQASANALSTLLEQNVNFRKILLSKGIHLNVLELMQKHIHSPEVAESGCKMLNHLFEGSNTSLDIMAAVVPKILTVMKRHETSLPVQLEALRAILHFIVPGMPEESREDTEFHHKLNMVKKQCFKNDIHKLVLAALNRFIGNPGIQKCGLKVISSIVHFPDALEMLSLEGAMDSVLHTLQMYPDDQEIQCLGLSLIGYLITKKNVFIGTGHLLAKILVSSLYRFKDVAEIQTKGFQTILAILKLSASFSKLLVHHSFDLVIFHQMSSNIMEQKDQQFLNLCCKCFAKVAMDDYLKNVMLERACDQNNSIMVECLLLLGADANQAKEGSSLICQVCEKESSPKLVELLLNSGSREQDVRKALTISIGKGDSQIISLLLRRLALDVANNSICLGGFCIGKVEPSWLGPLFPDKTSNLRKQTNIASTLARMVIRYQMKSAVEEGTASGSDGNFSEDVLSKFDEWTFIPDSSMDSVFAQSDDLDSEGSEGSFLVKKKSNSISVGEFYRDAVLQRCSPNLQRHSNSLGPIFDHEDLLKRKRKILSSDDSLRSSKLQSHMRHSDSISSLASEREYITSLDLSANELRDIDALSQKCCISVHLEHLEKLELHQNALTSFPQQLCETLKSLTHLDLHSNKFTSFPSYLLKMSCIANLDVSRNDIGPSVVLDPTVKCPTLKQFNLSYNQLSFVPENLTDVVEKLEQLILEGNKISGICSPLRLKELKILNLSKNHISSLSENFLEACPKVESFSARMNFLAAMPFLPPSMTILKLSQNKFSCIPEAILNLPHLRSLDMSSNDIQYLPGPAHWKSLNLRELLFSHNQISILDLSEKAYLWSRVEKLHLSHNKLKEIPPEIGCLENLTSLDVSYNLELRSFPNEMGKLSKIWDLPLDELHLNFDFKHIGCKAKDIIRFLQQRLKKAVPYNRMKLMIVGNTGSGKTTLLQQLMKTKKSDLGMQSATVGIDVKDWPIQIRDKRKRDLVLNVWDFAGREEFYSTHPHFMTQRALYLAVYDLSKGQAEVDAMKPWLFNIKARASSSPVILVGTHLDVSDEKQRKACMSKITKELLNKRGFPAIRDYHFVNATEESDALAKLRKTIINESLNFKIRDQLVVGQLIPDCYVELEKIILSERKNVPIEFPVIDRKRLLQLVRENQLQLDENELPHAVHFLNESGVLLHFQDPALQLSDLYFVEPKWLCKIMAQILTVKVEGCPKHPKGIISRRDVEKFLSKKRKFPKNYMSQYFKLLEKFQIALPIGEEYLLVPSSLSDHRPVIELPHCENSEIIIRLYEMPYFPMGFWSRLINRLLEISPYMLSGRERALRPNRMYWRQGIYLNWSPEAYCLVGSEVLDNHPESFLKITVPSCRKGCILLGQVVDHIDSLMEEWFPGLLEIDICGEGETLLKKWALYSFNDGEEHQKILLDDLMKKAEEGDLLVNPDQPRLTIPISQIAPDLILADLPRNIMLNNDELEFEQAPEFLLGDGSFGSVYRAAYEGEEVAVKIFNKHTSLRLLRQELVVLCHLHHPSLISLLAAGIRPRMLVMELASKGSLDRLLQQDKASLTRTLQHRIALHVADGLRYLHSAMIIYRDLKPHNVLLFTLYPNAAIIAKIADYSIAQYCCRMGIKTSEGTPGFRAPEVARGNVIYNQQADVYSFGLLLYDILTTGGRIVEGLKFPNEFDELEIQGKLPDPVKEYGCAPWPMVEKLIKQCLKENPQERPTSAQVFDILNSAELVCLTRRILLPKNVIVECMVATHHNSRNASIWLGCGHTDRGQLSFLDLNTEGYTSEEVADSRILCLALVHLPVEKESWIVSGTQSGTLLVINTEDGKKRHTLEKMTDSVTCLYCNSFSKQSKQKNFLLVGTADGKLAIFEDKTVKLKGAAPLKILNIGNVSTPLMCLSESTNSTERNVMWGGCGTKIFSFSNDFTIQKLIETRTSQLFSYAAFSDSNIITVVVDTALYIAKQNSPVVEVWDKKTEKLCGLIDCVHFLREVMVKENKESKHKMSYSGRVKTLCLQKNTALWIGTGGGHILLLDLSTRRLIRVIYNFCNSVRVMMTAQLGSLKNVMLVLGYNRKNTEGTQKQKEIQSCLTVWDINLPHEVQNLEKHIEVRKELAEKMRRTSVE
T2 sequence (Q5S007 whole entry): as the sequence (Q5S007 whole entry G2019S) above, with S2019G counted along it
Chain of LRRK2 (Q5S007 whole entry): as the sequence (Q5S007 whole entry G2019S) above, with S2019G counted along it

Take `CC[C@H]1COC[C@H]1n1c(C#N)cc2cnc(Nc3cn(C)nc3OC(C)C)nc21` (racemic) [Example 72, 7-((cis)-4-ethyltetrahydrofuran-3-yl)-2-((3-isopropoxy-1-methyl-1 H-pyrazol-4-yl)amino)-7H-pyrrolo[2,3-d]pyrimidine-6-carbonitrile]: on LRRK2, the half-maximal inhibitory concentration (IC50) (in general, the concentration at which inhibition is half-maximal) is 0.083 µM.
The compound `CC[C@@H]1COC[C@H]1n1c(C#N)cc2cnc(Nc3cn(C)nc3OC(C)C)nc21` (racemic) [Example 73, 7-((trans)-4-ethyltetrahydrofuran-3-yl)-2-((3-isopropoxy-1-methyl-1 H-pyrazol-4-yl)amino)-7H-pyrrolo[2,3-d]pyrimidine-6-carbonitrile] showed an IC50 on LRRK2 of 0.011 µM.
The compound `CC(C)Oc1nn(C(C)C#N)cc1Nc1ncc2cc(C#N)n([C@@H]3COC[C@@H]3C)c2n1` (single isomer, unassigned) [Example 48, 2-((1-(1-cyanoethyl)-3-isopropoxy-1 H-pyrazol-4-yl)amino)-7-((cis)-4-methyltetrahydrofuran-3-yl)-7H-pyrrolo[2,3-d]pyrimidine-6-carbonitrile] had an IC50 at LRRK2 of 0.256 µM.
Take `CC(C)Oc1nn(C(C)C#N)cc1Nc1ncc2cc(C#N)n([C@@H]3COC[C@@H]3C)c2n1` (single isomer, unassigned) [Example 49, 2-((1-(1-cyanoethyl)-3-isopropoxy-1 H-pyrazol-4-yl)amino)-7-((cis)-4-methyltetrahydrofuran-3-yl)-7H-pyrrolo[2,3-d]pyrimidine-6-carbonitrile]: on LRRK2, the IC50 worked out at 0.274 µM.
For the compound `CC(C)Oc1nn(C(C)C#N)cc1Nc1ncc2cc(C#N)n([C@@H]3COC[C@@H]3C)c2n1` (single isomer, unassigned) [Example 50, 2-((1-(1-cyanoethyl)-3-isopropoxy-1 H-pyrazol-4-yl)amino)-7-((cis)-4-methyltetrahydrofuran-3-yl)-7H-pyrrolo[2,3-d]pyrimidine-6-carbonitrile], the IC50 at LRRK2 was 0.007 µM.
At LRRK2, `CC(C)Oc1nn(C(C)C#N)cc1Nc1ncc2cc(C#N)n([C@@H]3COC[C@@H]3C)c2n1` (single isomer, unassigned) [Example 51, 2-((1-(1-cyanoethyl)-3-isopropoxy-1 H-pyrazol-4-yl)amino)-7-((cis)-4-methyltetrahydrofuran-3-yl)-7H-pyrrolo[2,3-d]pyrimidine-6-carbonitrile] registered an IC50 of 0.005 µM.
The same measure, in the same setting: with `Cn1cc(Nc2ncc3cc(C#N)n(C4CCOC4)c3n2)c(OC2COC2)n1` (single isomer, unassigned) [Example 52, 2-((1-methyl-3-(oxetan-3-yloxy)-1 H-pyrazol-4-yl)amino)-7-(tetrahydrofuran-3-yl)-7H-pyrrolo[2,3-d]pyrimidine-6-carbonitrile] the figure was 0.026 µM; with `Cn1cc(Nc2ncc3cc(C#N)n(C4CCOC4)c3n2)c(OC2COC2)n1` (single isomer, unassigned) [Example 53, 2-((1-methyl-3-(oxetan-3-yloxy)-1 H-pyrazol-4-yl)amino)-7-(tetrahydrofuran-3-yl)-7H-pyrrolo[2,3-d]pyrimidine-6-carbonitrile], 0.266 µM.
Same read-out and setting: the figure for `CO[C@H]1COC[C@H]1n1c(C#N)cc2cnc(Nc3cn(C(C)C#N)nc3OC(C)C)nc21` (single isomer, unassigned) [Example 57] is 0.027 µM; for `Cn1cc(Nc2ncc3cc(C#N)n(C4CCCOC4)c3n2)c(OC2COC2)n1` (single isomer, unassigned) [Example 81, 2-((1-methyl-3-(oxetan-3-yloxy)-1 H-pyrazol-4-yl)amino)-7-(tetrahydro-2H-pyran-3-yl)-7H-pyrrolo[2,3-d]pyrimidine-6-carbonitrile] it is 0.183 µM; for `Cn1cc(Nc2ncc3cc(C#N)n(C4CCCOC4)c3n2)c(OC2COC2)n1` (single isomer, unassigned) [Example 82, 2-((1-methyl-3-(oxetan-3-yloxy)-1 H-pyrazol-4-yl)amino)-7-(tetrahydro-2H-pyran-3-yl)-7H-pyrrolo[2,3-d]pyrimidine-6-carbonitrile] it is 0.104 µM.
In the case of `C[C@@H]1COCC[C@H]1n1c(C#N)cc2cnc(Nc3cn(C)nc3OC3COC3)nc21` (single isomer, unassigned) [Example 83, 2-((1-methyl-3-(oxetan-3-yloxy)-1 H-pyrazol-4-yl)amino)-7-((trans)-3-methyltetrahydro-2H-pyran-4-yl)-7H-pyrrolo[2,3-d]pyrimidine-6-carbonitrile], the half-maximal inhibitory concentration (IC50) on LRRK2 is 0.134 µM.
For the compound `C[C@@H]1COCC[C@H]1n1c(C#N)cc2cnc(Nc3cn(C)nc3OC3COC3)nc21` (single isomer, unassigned) [Example 84, 2-((1-methyl-3-(oxetan-3-yloxy)-1 H-pyrazol-4-yl)amino)-7-((trans)-3-methyltetrahydro-2H-pyran-4-yl)-7H-pyrrolo[2,3-d]pyrimidine-6-carbonitrile], at LRRK2, the IC50 was determined as 0.007 µM.
At LRRK2, `CC1COCCC1n1c(C#N)cc2cnc(Nc3cn(C)nc3OC3COC3)nc21` (single isomer, unassigned) [Example 85, ((1-methyl-3-(oxetan-3-yloxy)-1 H-pyrazol-4-yl)amino)-7-((cis)-3-methyltetrahydro-2H-pyran-4-yl)-7H-pyrrolo[2,3-d]pyrimidine-6-carbonitrile] registered an IC50 of 0.041 µM.
`CC1COCCC1n1c(C#N)cc2cnc(Nc3cn(C)nc3OC3COC3)nc21` (single isomer, unassigned) [Example 86, ((1-methyl-3-(oxetan-3-yloxy)-1 H-pyrazol-4-yl)amino)-7-((cis)-3-methyltetrahydro-2H-pyran-4-yl)-7H-pyrrolo[2,3-d]pyrimidine-6-carbonitrile] had an IC50 on LRRK2 of 0.435 µM.
Take `COCC(C)n1c(C#N)cc2cnc(Nc3cn(C4CCC(C)(O)CC4)nc3OC(C)C)nc21` [Example 105, trans-2-((1-(4-hydroxy-4-methylcyclohexyl)-3-isopropoxy-1H-pyrazol-4-yl)amino)-7-((S)-1-methoxypropan-2-yl)-7H-pyrrolo[2,3-d]pyrimidine-6-carbonitrile]: the concentration for half-maximal inhibition (IC50) against full-length LRRK2 G2019S was 0.057 µM; in assay [1], 0.062 µM.
The matching figures for `COCC(C)n1c(C#N)cc2cnc(Nc3cn(C4CCC(C)(O)CC4)nc3OC3CC3)nc21` [Example 106, cis-2-((3-cyclopropoxy-1-(4-hydroxy-4-methylcyclohexyl)-1H-pyrazol-4-yl)amino)-7-((S)-1-methoxypropan-2-yl)-7H-pyrrolo[2,3-d]pyrimidine-6-carbonitrile]: 0.055 µM and 0.07 µM.
As for `COCC(C)n1c(C#N)cc2cnc(Nc3cn(C4CCC(C)(O)CC4)nc3OC3CC3)nc21` [Example 107, trans-2-((3-cyclopropoxy-1-(4-hydroxy-4-methylcyclohexyl)-1H-pyrazol-4-yl)amino)-7-((S)-1-methoxypropan-2-yl)-7H-pyrrolo[2,3-d]pyrimidine-6-carbonitrile], the IC50 against full-length LRRK2 G2019S came out at 0.081 µM; in assay [1], 0.09 µM.
With `[2H]C([2H])([2H])n1cc(Nc2ncc3cc(C#N)n([C@@H](C)COC)c3n2)c(OC2CC(O)C2(C)C)n1` (stereo partly drawn) [Example 108, 2-((3-(3-hydroxy-2,2-dimethylcyclobutoxy)-1-(methyl-d3)-1H-pyrazol-4-yl)amino)-7-((S)-1-methoxypropan-2-yl)-7H-pyrrolo[2,3-d]pyrimidine-6-carbonitrile], the IC50 (on full-length LRRK2 G2019S; in assay [1]) was 0.01 µM in each case.
On to `COCCn1cc(Nc2ncc3cc(C#N)n([C@H]4COC[C@@H]4C)c3n2)c(OC2CC2)n1` [Example 113, 2-((3-Cyclopropoxy-1-(2-methoxyethyl)-1 H-pyrazol-4-yl)amino)-7-((3R,4R)-4-methyltetrahydrofuran-3-yl)-7H-pyrrolo[2,3-d]pyrimidine-6-carbonitrile], for which the IC50 (at full-length LRRK2 G2019S; in assay [1]) was 0.027 µM throughout.
Turning to `COCCn1cc(Nc2ncc3cc(C#N)n(C4CCOCC4)c3n2)c(OC2CC2)n1` [Example 122, 2-((3-Cyclopropoxy-1-(2-methoxyethyl)-1 H-pyrazol-4-yl)amino)-7-(tetrahydro-2H-pyran-4-yl)-7H-pyrrolo[2,3-d]pyrimidine-6-carbonitrile], the IC50 on full-length LRRK2 G2019S came out at 0.222 µM; in assay [1], 0.153 µM.
The matching figures for `COCC(C)n1cc(Nc2ncc3cc(C#N)n([C@H]4COC[C@@H]4C)c3n2)c(OC2COC2)n1` (stereo partly drawn) [Example 128, 2-((1-(1-Methoxypropan-2-yl)-3-(oxetan-3-yloxy)-1 H-pyrazol-4-yl)amino)-7-((3R,4R)-4-methyltetrahydrofuran-3-yl)-7H-pyrrolo[2,3-d]pyrimidine-6-carbonitrile]: 0.104 µM and 0.081 µM.
As to `COC[C@H](C)n1c(C#N)cc2cnc(Nc3cn(CCO)nc3OC3CCOCC3)nc21` [Example 138, (S)-2-((1-(2-hydroxyethyl)-3-((tetrahydro-2H-pyran-4-yl)oxy)-1 H-pyrazol-4-yl)amino)-7-(1-methoxypropan-2-yl)-7H-pyrrolo[2,3-d]pyrimidine-6-carbonitrile], the IC50 (on full-length LRRK2 G2019S; in assay [1]) was 0.011 µM throughout.
With `COC[C@H](C)n1c(C#N)cc2cnc(Nc3cn(CCO)nc3OC3COC3)nc21` [Example 139, (S)-2-((1-(2-hydroxyethyl)-3-(oxetan-3-yloxy)-1 H-pyrazol-4-yl)amino)-7-(1-methoxypropan-2-yl)-7H-pyrrolo[2,3-d]pyrimidine-6-carbonitrile], the IC50 against full-length LRRK2 G2019S turned out to be 0.02 µM; in assay [1], 0.022 µM.
Consider `COC[C@H](C)n1c(C#N)cc2cnc(Nc3ccc(C(C)(C)O)cc3OC3CC3)nc21` [Example 154, (S)-2-((2-cyclopropoxy-4-(2-hydroxypropan-2-yl)phenyl)amino)-7-(1-methoxypropan-2-yl)-7H-pyrrolo[2,3-d]pyrimidine-6-carbonitrile], for which the IC50 was 0.001 µM on full-length LRRK2 G2019S and 0.002 µM in assay [1].
